Source: ChEMBL document CHEMBL1201862, “PubChem BioAssay data set” (2004)
Calls of active or inactive are those of the source.

Legend:
[1] = biological target: T1, DNA dC->dU-editing enzyme APOBEC-3A (Homo sapiens, UniProt P31941); assay: Dose Response confirmation of small molecule APOBEC3A DNA Deaminase Inhibitors via a fluorescence-based single-stranded DNA deaminase assay. [Related pubchem assays (depositor defined):AID493011, AID493024]; type: functional
[2] = biological target: T2, Ubiquitin-conjugating enzyme E2 N (Homo sapiens, UniProt P61088); type: functional;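 note: Dose-response confirmation in a TR-FRET assay detecting UBC13-driven polyubiquitin chain formation, inhibition measured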
T2 sequence (P61088 whole entry): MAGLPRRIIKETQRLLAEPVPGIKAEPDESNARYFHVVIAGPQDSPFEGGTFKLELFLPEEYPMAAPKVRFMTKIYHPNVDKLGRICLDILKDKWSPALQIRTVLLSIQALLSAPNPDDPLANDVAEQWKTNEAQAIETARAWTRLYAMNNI

[3] = biological target: T3, DNA dC->dU-editing enzyme APOBEC-3G (Homo sapiens, UniProt Q9HC16); type: functional
T3 sequence (Q9HC16 whole entry): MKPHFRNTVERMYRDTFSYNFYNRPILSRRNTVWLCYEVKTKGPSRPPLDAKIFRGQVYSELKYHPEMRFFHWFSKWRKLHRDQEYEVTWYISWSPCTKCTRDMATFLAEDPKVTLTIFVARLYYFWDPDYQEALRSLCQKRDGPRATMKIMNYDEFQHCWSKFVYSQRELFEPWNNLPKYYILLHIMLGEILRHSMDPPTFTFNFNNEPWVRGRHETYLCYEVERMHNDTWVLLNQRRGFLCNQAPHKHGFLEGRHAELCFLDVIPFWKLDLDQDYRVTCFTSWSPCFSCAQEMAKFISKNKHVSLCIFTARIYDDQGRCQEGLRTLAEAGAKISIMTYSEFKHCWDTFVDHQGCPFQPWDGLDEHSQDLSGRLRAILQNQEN

[4] = viability of uninfected HEp-2 cells – cell-based, HTS, cytotoxicity control for RSV inhibitor project, dose response (AID 2410); type: functional; conditions: human respiratory syncytial virus
[5] = cells
[6] = biological target: T4, Coagulation factor XII (Homo sapiens, UniProt P00748); type: functional;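 note: activated factor XIIa alpha cleaving a fluorogenic AMC peptide substrate; inhibitor potency from loss of enzyme activity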
T4 sequence (P00748 whole entry): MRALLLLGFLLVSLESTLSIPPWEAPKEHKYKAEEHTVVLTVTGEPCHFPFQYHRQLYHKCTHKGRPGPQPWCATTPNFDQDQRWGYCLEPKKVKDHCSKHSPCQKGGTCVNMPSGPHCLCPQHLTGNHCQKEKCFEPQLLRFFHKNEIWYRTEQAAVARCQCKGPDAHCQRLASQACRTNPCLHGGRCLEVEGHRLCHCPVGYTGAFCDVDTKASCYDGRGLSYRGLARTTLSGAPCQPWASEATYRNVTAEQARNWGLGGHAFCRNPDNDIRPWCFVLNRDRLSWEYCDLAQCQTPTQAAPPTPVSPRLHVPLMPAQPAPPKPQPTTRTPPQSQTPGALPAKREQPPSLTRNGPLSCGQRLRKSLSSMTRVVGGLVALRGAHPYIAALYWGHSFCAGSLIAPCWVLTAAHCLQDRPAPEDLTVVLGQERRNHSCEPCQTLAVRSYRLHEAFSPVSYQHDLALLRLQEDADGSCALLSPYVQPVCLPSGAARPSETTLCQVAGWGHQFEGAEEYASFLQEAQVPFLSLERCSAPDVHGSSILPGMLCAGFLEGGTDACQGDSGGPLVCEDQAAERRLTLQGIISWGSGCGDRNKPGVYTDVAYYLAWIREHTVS

[7] = viability loss of HPDE-C7K cells – cell-based, fluorescence, HTS, primary screen (AID 431); type: functional; conditions: Homo sapiens
[8] = HPDE-C7 pancreatic duct cell viability loss – fluorescence, HTS (AID 430); type: functional, cell-based; conditions: Homo sapiens
[9] = biological target: CAAX prenyl protease 2 (Saccharomyces cerevisiae S288c, UniProt Q03530); type: biochemical
Chain of CAAX prenyl protease 2 (Q03530 whole entry): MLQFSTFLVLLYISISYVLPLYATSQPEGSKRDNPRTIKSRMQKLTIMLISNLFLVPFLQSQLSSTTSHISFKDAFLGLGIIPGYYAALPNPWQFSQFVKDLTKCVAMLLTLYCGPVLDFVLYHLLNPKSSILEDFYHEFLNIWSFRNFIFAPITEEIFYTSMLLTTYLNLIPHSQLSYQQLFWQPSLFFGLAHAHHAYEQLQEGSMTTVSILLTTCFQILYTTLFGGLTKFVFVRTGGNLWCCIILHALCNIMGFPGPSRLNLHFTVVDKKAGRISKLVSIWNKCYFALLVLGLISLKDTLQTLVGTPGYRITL

[10] = biological target: T5, Aspartyl aminopeptidase (Plasmodium falciparum 3D7, UniProt Q8I2J3); assay: Counterscreen for inhibitors of M1 and M17 aminopeptidases: QFRET-based biochemical high throughput dose response assay for inhibitors of the Plasmodium falciparum M18 Aspartyl Aminopeptidase (PFM18AAP). [Related PubChem assays: 1619 (Screening assay (M17LAP inhibitors).), 1445 (Screening assay (M1AAP inhibitors).)]
T5 sequence (Q8I2J3 whole entry): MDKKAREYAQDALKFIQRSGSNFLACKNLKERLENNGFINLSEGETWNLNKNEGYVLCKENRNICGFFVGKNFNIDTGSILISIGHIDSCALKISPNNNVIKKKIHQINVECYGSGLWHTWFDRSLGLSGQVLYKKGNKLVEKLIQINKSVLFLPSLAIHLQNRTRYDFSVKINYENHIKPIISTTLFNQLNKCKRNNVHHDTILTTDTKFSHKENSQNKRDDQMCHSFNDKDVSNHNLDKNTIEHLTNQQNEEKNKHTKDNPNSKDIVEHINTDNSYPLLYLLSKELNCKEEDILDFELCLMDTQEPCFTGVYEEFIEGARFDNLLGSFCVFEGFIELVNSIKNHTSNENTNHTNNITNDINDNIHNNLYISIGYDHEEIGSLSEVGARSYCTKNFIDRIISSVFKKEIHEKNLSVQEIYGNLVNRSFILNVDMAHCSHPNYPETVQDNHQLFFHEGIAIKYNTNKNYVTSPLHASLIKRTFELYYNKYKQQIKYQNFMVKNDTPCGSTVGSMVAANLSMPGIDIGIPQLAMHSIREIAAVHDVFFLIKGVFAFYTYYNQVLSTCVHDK

[11] = biological target: T6, Leucine aminopeptidase (Plasmodium falciparum 3D7, UniProt Q8IL11); assay: P. falciparum M17LAP inhibitors, primary screen, biochemical, fluorogenic H-Leu-NHMec substrate, 1536-well (AID 1619); type: functional
T6 sequence (Q8IL11 whole entry): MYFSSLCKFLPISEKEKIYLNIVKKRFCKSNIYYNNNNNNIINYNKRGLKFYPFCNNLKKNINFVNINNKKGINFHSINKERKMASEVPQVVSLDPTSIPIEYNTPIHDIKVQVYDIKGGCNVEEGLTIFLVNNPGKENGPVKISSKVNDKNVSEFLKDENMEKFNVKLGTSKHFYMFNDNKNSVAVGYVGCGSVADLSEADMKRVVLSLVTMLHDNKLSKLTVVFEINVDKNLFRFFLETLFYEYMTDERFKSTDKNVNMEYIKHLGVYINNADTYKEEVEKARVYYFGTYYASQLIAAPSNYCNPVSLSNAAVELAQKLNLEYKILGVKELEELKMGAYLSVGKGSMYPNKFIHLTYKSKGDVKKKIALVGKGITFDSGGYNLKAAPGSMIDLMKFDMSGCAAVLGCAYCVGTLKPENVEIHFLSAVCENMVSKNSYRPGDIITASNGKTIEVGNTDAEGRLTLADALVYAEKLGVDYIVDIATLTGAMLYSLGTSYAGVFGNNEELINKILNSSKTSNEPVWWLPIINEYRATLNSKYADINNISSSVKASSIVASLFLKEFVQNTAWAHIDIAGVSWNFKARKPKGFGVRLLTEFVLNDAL

[12] = biological target: Procathepsin L (Homo sapiens, UniProt P07711); assay: CTSL1 protease inhibition – biochemical, QFRET, 1536-well, counter-screen for M1/M17 aminopeptidase inhibitor project, dose response (AID 2214)
Chain of Procathepsin L (P07711 whole entry): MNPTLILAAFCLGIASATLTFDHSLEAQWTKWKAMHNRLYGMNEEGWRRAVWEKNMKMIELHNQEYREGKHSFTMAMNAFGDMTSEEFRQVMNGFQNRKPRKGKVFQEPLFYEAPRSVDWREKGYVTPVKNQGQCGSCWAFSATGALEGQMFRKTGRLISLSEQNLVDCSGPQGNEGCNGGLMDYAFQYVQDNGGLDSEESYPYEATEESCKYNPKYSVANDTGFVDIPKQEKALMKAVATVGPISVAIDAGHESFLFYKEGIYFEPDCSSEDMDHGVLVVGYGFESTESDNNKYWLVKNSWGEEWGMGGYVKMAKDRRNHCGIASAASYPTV

[13] = biological target: Eukaryotic translation initiation factor 4H (Homo sapiens, UniProt Q15056); assay: eIF4H binding inhibition – biochemical, uHTS, fluorescence polarization, translation initiation inhibitor project, primary screen (AID 2012)
[14] = biological target: Polyadenylate-binding protein 1 (Homo sapiens, UniProt P11940); assay: blockers of PABP interaction with poly(A) – biochemical, fluorescence polarization, […] (AID 2014)
Chain of Polyadenylate-binding protein 1 (P11940 whole entry): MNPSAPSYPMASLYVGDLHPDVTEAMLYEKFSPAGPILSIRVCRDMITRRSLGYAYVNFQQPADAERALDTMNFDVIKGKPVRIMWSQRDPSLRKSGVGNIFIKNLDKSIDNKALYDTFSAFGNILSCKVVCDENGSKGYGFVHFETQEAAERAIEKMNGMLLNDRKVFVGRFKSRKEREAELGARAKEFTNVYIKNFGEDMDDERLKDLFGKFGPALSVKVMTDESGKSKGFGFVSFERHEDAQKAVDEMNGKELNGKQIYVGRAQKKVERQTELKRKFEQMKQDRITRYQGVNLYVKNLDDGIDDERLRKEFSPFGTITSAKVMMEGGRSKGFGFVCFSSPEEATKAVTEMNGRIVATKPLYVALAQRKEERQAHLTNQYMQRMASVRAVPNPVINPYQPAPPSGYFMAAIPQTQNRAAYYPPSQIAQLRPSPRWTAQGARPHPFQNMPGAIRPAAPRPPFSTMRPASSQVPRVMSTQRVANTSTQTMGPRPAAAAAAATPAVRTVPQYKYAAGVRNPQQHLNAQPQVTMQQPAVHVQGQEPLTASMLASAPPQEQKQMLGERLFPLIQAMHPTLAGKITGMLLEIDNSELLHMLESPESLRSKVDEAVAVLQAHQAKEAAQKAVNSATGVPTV

[15] = A High Throughput Confirmatory Assay used to Identify Novel Compounds that Inhibit Mycobacterium Tuberculosis in the absence of Glycerol.; type: functional
[16] = microbe, parasite or virus in culture; type: functional; conditions: Mycobacterium tuberculosis
[17] = biological target: T1, DNA dC->dU-editing enzyme APOBEC-3A; assay: A3A deaminase inhibition for selectivity – biochemical, dose response (AID 504722); type: functional
[18] = biological target: T3, DNA dC->dU-editing enzyme APOBEC-3G; assay: Dose Response confirmation of small molecule APOBEC3G DNA Deaminase Inhibitors via a fluorescence-based single-stranded DNA deaminase assay. [Related pubchem assays (depositor defined):AID493012, AID493028]; type: functional
[19] = cells; type: functional, cell-based
[20] = cells; type: functional, cell-based; remark: listed apart in the source
[21] = biological target: T7, Neuropeptide Y receptor type 1 (Homo sapiens, UniProt P25929); assay: Fluorescence-based counterscreen for agonists of NPY-Y2: cell-based high-throughput dose response assay for agonists of NPY-Y1.; type: functional
T7 sequence (P25929 whole entry): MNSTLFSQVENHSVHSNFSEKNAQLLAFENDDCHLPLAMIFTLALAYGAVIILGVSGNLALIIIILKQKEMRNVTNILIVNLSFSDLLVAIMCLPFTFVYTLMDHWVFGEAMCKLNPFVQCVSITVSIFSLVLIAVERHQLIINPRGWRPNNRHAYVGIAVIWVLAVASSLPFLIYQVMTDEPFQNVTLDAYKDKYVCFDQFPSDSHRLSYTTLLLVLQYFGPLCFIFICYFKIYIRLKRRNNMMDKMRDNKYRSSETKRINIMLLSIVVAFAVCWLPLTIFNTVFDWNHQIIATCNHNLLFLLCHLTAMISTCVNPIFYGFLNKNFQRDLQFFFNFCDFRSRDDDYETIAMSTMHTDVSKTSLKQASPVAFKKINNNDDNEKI

[22] = biological target: T8, Neuropeptide Y receptor type 2 (Homo sapiens, UniProt P49146); assay: Fluorescence-based cell-based high-throughput dose response assay for agonists of NPY-Y2. [Related pubchem assays: 1703 (Screening assay (CNGC inhibitors).), 1359 (Screening assay (NPY-Y2 potentiators or agonists).), 1304 (Screening assay (NPY-Y1 potentiators or agonists).), 1710 (Screening assay (NPY-Y2 agonists).), 1791 (Summary AID.)]; type: functional
T8 sequence (P49146 whole entry): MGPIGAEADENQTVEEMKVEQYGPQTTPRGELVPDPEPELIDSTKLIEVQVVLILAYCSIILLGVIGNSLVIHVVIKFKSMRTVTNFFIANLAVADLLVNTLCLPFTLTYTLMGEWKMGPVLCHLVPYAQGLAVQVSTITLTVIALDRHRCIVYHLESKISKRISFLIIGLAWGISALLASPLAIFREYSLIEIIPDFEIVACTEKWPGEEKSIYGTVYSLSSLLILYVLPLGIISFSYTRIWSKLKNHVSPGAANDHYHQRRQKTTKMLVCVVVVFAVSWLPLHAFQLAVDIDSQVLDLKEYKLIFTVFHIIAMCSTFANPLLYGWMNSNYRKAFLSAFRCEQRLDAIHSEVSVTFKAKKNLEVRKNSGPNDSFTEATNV

[23] = tested on: HEK293; assay: Fluorescence-based counterscreen for potentiators or agonists of NPY-Y2: cell-based high-throughput dose response assay to identify inhibitors of cyclic nucleotide gated ion channel (CNGC) activity. In this assay, the parental HEK293 cell line transfected with a cyclic-nucleotide gated ion channel (CNGC)-based cAMP sensor is used to measure inhibition of isoproterenol-induced CNGC activity by test compound.; type: functional; conditions: Homo sapiens;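 note: stimulus is 1 µM isoproterenol at EC100 plus PDE inhibitor Ro 20-1724 at 25 µM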
[24] = biological target: Peroxisome proliferator-activated receptor gamma/Nuclear receptor coactivator 2 (Homo sapiens, UniProt P37231); assay: (§1) TR-FRET dose response biochemical High Throughput Screening assay for agonists of the steroid receptor coactivator 2 (SRC-2) recruitment by the peroxisome proliferator-activated receptor gamma (PPAR gamma): non-selective agonists. [Related pubchem assays: 1297, 1032 ]; type: functional
[25] = biological target: FAD-linked sulfhydryl oxidase ALR (Homo sapiens, UniProt P55789); assay: ALR-catalysed DTT oxidation blockers – biochemical, H2O2 detection, luminescence, cherry-pick, dose response (AID 493248)
Chain of FAD-linked sulfhydryl oxidase ALR (P55789 whole entry): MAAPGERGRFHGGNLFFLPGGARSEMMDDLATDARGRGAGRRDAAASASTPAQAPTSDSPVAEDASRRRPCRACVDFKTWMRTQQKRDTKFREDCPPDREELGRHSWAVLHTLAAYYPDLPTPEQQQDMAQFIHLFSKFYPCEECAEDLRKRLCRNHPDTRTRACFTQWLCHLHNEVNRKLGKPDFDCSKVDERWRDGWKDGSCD

[26] = biological target: Peroxisome proliferator-activated receptor gamma/Nuclear receptor coactivator 1 (Homo sapiens, UniProt P37231); assay: as §1, with “1 (SRC-1)” for “2 (SRC-2)”, “assays (depositor defined):AID1300, AID1808, AID504735, AID631]” for “assays: 1297, 1032 ]”; type: protein assay
[27] = biological target: Peroxisome proliferator-activated receptor gamma/Nuclear receptor coactivator 3 (Homo sapiens, UniProt P37231); assay: as §1, with “3 (SRC-3)” for “2 (SRC-2)”, “1301 (Confirmation screen.), 1048 (Primary screen.)]” for “1297, 1032 ]”; type: functional
Chain of Peroxisome proliferator-activated receptor gamma/Nuclear receptor coactivator 3 (P37231 whole entry): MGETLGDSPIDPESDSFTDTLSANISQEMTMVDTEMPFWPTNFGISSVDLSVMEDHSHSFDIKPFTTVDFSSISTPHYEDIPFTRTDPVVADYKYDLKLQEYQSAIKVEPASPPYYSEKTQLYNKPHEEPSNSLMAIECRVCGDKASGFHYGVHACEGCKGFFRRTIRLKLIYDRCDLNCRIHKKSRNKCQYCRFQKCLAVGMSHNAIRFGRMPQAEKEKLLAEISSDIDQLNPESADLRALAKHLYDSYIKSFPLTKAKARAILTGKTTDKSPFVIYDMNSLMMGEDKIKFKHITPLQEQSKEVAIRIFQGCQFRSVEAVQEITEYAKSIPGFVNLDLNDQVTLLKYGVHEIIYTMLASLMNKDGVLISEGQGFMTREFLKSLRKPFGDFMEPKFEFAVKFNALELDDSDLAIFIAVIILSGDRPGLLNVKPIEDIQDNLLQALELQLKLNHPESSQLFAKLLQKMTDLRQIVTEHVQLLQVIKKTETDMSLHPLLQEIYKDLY
Chain of Peroxisome proliferator-activated receptor gamma/Nuclear receptor coactivator 3 (Q9Y6Q9 whole entry, further chain): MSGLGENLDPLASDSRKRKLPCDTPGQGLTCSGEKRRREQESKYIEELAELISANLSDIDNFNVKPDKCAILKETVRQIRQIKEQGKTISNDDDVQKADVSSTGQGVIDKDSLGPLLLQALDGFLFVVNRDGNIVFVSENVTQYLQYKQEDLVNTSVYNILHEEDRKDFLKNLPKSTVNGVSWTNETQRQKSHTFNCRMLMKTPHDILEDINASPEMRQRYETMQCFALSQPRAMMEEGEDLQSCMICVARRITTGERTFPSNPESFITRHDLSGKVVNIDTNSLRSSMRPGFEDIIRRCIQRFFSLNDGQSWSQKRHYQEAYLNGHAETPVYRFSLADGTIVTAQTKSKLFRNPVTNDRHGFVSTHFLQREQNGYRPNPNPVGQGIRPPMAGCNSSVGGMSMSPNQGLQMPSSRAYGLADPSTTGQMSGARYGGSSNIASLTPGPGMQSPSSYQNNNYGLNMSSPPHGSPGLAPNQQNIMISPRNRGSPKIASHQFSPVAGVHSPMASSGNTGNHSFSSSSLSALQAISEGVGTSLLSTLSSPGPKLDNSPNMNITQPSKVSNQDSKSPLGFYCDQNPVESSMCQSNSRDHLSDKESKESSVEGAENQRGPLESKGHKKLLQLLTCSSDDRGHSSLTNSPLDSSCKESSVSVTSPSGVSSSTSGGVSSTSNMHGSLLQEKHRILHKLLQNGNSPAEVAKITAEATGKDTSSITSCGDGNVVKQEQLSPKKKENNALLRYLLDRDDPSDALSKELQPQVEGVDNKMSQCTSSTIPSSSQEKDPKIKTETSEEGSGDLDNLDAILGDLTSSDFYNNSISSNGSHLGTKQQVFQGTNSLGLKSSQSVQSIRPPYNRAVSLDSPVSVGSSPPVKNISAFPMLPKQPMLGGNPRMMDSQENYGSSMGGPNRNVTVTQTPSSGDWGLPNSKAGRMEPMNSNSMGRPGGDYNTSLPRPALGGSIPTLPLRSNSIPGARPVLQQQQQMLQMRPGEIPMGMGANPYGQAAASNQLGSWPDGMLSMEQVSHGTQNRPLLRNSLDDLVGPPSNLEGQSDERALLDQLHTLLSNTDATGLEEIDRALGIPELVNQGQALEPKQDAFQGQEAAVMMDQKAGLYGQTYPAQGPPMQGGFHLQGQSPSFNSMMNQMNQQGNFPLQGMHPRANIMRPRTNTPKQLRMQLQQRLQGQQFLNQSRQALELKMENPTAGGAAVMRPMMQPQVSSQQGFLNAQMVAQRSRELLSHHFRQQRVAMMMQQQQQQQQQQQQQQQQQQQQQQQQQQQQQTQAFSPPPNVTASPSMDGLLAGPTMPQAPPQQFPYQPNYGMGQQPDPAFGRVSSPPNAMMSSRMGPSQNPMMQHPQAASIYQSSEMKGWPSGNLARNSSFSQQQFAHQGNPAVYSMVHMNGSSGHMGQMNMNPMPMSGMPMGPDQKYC

T1 sequence (P31941 whole entry): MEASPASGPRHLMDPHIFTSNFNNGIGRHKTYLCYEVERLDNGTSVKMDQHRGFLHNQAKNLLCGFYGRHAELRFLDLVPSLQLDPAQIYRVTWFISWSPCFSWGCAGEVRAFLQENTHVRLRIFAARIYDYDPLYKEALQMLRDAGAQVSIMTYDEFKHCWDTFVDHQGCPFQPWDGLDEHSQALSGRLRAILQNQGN

## Cc1ccc2c(c1)C1C[N+](C)(CC(=O)c3ccc(Cl)cc3Cl)CCC1N2C(=O)c1ccc(F)cc1 (configuration not stated)
[1]
  IC50: 2.65 µM (active)
[2]
  IC50: > 20 µM (inactive)
[3]
  IC50: 2.88 µM (active)

## Cc1cc(Nc2ccccc2Cl)nc(-c2ccccc2O)n1
[4]
  CC50: 38.5 µM (active)
[5]
  IC50: 34.7 µM (active)

## COc1cc(COCC(O)CN2CCOCC2)cc(OC)c1OC (configuration not stated)
[6]
  IC50: > 50 µM (inactive)

## COc1ccc(S(=O)(=O)NCc2ccco2)cc1-c1nnc2c3ccccc3c(C)nn12
[5]
  IC50: 11.2 µM (active)

## CCc1c(C)nc(N)nc1OCC(F)(F)C(F)F
[7]
  EC50: > 20 µM (not active)
[8]
  EC50: > 20 µM (not active)

## Nc1c(Cl)cc(C2=NCCn3nc4cc(C(F)(F)F)ccc4c32)cc1Cl
[9]
  AC50: 5.28 µM (active)

## Cc1ccc(-c2cccc(NC(=O)C3C4C=CC(C4)C3C(=O)O)c2)o1 (configuration not stated)
[10]
  IC50: > 73.5 µM (not active)
[11]
  IC50: 3.86 µM (active)
[12]
  IC50: > 59.6 µM (not active)

## CN(Cc1cccc(Cl)c1)C(=O)C1CSC2(C)CCC(=O)N12 (configuration not stated)
[13]
  IC50: > 100 µM (inactive)
[14]
  IC50: 29.4 µM (active)

## COc1cc2ccccc2cc1C(=O)N(CCN(C)C)c1nc2ccc(C)cc2s1
[9]
  AC50: 11.3 µM (active)

## CCCCCNc1nc(N2CCCC2)c2c(c1C#N)CCN(C)C2
[15]
  IC50: > 100 µM (active)
[16]
  CC50: > 40 µM (active)

## CCn1c(C)cc(/C=C2\NC(=O)N(CC(=O)Nc3ccc(F)cc3)C2=O)c1C
[1]
  IC50: 1.24 µM (active)
[3]
  IC50: 2.2 µM (active)

## Sc1nnc(-c2ccco2)n1/N=C/c1cccs1
[17]
  IC50: > 100 µM (inactive)
[18]
  IC50: 3.28 µM (active)
[19]
  EC50: > 350 µM (not active)
[20]
  EC50: > 350 µM (not active)

## CCc1cc[n+](/C(C([S-])=Nc2cccc(C)c2)=C(/O)c2ccc(C)c([N+](=O)[O-])c2)cc1
[21]
  EC50: > 35.4 µM (not active)
[22]
  EC50: > 35.4 µM (not active)
[23]
  EC50: > 35.4 µM (not active)

## Cc1ccc(O)c(-c2cc(-c3ccccc3C)[nH]n2)c1
[7]
  EC50: 8.16 µM (active)
[8]
  EC50: 11 µM (active)

## Cc1cccc(-n2c(S)nnc2-c2ccco2)c1
[17]
  IC50: > 100 µM (inactive)
[18]
  IC50: 6.36 µM (active)
[24]
  EC50: > 79.4 µM (not active)
[25]
  AC50: 5.51 µM (active)
[26]
  EC50: > 79.4 µM (inactive)
[27]
  EC50: > 79.4 µM (not active)

## Cc1sc2ncnc(N3CCC(C(=O)N(CC(C)C)c4nc5ccccc5s4)CC3)c2c1C
[15]
  IC50: > 100 µM (active)
[16]
  CC50: > 40 µM (active)
